In patent US20030176314A1, “Compounds for the treatment of pain” (priority 2001, published 2003):

Columns and labels:
[1] = target: T1, human α1A adrenergic receptor (Homo sapiens, UniProt P35348); experiment: Binding at human α1A adrenergic receptor; conditions: Table 8; read-out: hα1A Ki
T1 construct: host or cells: LM(tk-) cells, line L-α1C
T1 sequence (P35348 1-466): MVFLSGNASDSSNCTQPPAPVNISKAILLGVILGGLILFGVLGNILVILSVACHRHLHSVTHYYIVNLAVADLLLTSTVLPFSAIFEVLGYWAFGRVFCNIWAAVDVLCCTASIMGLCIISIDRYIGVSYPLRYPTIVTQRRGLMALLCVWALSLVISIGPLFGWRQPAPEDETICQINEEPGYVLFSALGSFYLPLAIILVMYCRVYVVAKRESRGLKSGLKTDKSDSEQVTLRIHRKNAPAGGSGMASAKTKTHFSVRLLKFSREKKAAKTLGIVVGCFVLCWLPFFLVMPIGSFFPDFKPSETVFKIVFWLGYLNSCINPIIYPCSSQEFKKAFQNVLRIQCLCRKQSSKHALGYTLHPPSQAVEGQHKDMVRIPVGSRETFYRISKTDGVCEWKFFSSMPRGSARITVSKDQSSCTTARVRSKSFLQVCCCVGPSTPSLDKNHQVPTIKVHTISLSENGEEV
Source text: α1 Human Adrenergic Receptors: To determine the binding of compounds to human α1 receptors, LM(tk−) cell lines stably transfected with the genes encoding the α1a, α1b, and α1d receptors were used. The nomenclature describing the α1 receptors was changed recently, such that the receptor formerly designated α1a is now designated α1d, and the receptor formerly designated α1c is now designated α1a. The cell lines expressing these receptors were deposited with the ATCC before the nomenclature change and reflect the subtype designations formerly assigned to these receptors. Thus, the cell line expressing the receptor described herein as the α1a receptor was deposited with the ATCC on Sep. […] The cell line expressing receptor described herein as the α1d receptor was deposited with the ATCC on Sep. […] The cell line expressing the α1b receptor is designated L-α1B, and was deposited on Sep.
(§1) The binding affinity (Ki) of these compounds were tested according to the protocols described herein at the following receptors; human α1A, α1B, α1D, α2A, α2B, and α2C adrenergic receptors; human Y1, Y2, Y4, and Y5 receptors; and N-Methyl-D-aspartic acid (NMDA) receptor channels. The binding interactions of these compounds were additionally tested at the norepinephrine (NE) transporter (NE uptake) and serotonin (5-hydroxytryptamine (5HT)) transporter (5HT uptake) according to protocols described herein

[2] = tested on: distension induced contractions of the rat bladder; experiment: Distension-induced rhythmic contraction (DIRC) model, micturition reflex in anesthetized rats; assay type: in vivo
Source text: This model is widely considered to be predictive for the actions of drugs to treat human urge incontinence (also refered to as detrusor instability or unstable bladder). Examples of drugs that are active in this model which also are used therapeutically in humans include oxybutynin and baclofen (Morikawa et al, 1992); imipramine and nortriptyline (Pietra et al, 1990); and nifedipine and terodiline (Guarneri et al, 1993).
Female Sprague Dawley rats weighing approximately 300 g were anesthetized with subcutaneous urethane (1.2 g/kg). The trachea was cannulated with PE240 tubing to provide a clear airway throughout the experiment. A midline abdominal incision was made and the left and right ureters were isolated. The ureters were ligated distally (to prevent escape of fluids from the bladder) and cannulated proximally with PE10 tubing. The incision was closed using 4-0 silk sutures, leaving the PE10 lines routed to the exterior for the elimination of urine. The bladder was canulated via the transurethral route using PE50 tubing inserted 2.5 cm beyond the urethral opening. This cannula was secured to the tail using tape and connected to a pressure transducer. To prevent leakage from the bladder, the cannula was tied tightly to the exterior urethral opening using 4-0 silk.
To initiate the micturition reflex, the bladder was first emptied by applying pressure to the lower abdomen, and then filled with normal saline in 100 μl increments (maximum=2 ml) until spontaneous bladder contractions occurred (typically 20-40 mmHg at a rate of one contraction every 2 to 3 minutes. Once a regular rhythm was established, vehicle (saline) or test compounds were administered i.v. to examine their effects on bladder activity. The effect of a compound which inhibited the micturition reflex was expressed as its “disappearance time”, defined as the time between successive bladder contractions in the presence of the test compound minus the time between contractions before compound administration.

[3] = target: T2, human α2A adrenergic receptor (Homo sapiens, UniProt P08913); experiment: Binding at human α2A adrenergic receptor; conditions: Table 8; read-out: hα2A Ki
T2 construct: host or cells: LM(tk-) cells, line L-α2A
T2 sequence (P08913 1-465): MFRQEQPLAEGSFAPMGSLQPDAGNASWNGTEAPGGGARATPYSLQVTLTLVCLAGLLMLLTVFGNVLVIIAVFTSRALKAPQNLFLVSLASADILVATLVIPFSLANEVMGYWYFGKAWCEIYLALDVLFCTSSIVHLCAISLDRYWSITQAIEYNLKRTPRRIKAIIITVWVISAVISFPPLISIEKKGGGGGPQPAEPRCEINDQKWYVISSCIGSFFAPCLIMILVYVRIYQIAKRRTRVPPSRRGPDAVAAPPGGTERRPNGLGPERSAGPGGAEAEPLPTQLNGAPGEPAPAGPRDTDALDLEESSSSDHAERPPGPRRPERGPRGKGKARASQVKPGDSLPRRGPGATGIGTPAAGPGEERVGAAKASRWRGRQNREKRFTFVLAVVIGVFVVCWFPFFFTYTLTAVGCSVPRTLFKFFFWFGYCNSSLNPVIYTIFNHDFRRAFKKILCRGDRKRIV
Source text: α2 Human Adrenergic Receptors: To determine the binding of compounds to human α2 receptors, LM(tk−) cell lines stably transfected with the genes encoding the α2A, α2B, and α2C receptors were used. The cell line expressing the α2A receptor is designated L-α2A, and was deposited on Nov. 6, 1992, under ATCC Accession No. CRL 11180. The cell line expressing the α2B receptor is designated L-NGC-α2B, and was deposited on Oct. 25, 1989, under ATCC Accession No. CRL 10275. The cell line expressing the α2C receptor is designated L-α2C, and was deposited on Nov. 6, 1992, under ATCC Accession No. CRL-11181. Cell lysates were prepared as described herin, and suspended in 25 mM glycyiglycine buffer (pH 7.6 at room temperature). Equilibrium competition binding assay were performed using […] (0.5 nM), and nonspecific binding was determined by incubation with 10 μM phentolamine. The bound radioligand was separated by filtration through GF/B filters using a cell harvester.
as §1

| Compound | Ki [1] [nM] | inhibition of distention-induced contractions of the rat bladder ([2]; 1 mg/kg, i.v.) | time for which inhibition of bladder activity persisted ([2]; i.v. administration, anesthetized rat (figure legends)) [min] | Ki [3] [nM] |
| --- | --- | --- | --- | --- |
| Cc1nc(NC(=N)N)nc2ccc3ccccc3c12 [Compound 1007A] | 3270 |  |  |  |
| Cc1cc(NC(=N)N)nc2ccc(Cl)cc12 [Compound 4005A, N-(6-chloro-4-methyl-2-quinolinyl)guanidine] |  | complete inhibition | 35 | 199 |
